Results as given in patent publication US4937184A, “N-demethylefrotomycin” (Pfizer Inc., priority 1989, dated 1990).
Converted amounts (≈) assume the structure as drawn.

Columns and labels:
[1] = test system: E. coli; assay: In vitro MIC in brain heart infusion (BHI) broth, E. coli; type: cell-based; settings: Escherichia coli
From the text: (§1) Generally twelve 2 fold dilutions of the test compound are employed, with initial concentration of the test drug being in the range of 50 to 200 mcg./ml. The susceptibility (MIC) of the test organism is accepted as the lowest concentration of compound capable of producing complete inhibition of growth as judged by the naked eye.

[2] = test system: Past. mult; assay: In vitro MIC in brain heart infusion (BHI) broth, Past. mult; type: cell-based; settings: 48 h
From the text: as §1

[3] = test system: Past. haem.; assay: In vitro MIC in brain heart infusion (BHI) broth, Past. haem.; type: cell-based
From the text: as §1

[4] = test system: Lact. acidoph.; assay: In vitro MIC in brain heart infusion (BHI) broth, Lact. acidoph.; type: cell-based; settings: 24 h, strain 001, replicate Day 1
From the text: as §1

[5] = test system: Acto. pyog.; assay: In vitro MIC in brain heart infusion (BHI) broth, Acto. pyog.; type: cell-based; settings: 24 h
From the text: as §1

[6] = test system: Hemoph. pleur.; assay: In vitro MIC in brain heart infusion (BHI) broth, Hemoph. pleur.; type: cell-based; settings: 24 h
From the text: as §1

[7] = test system: Past. haem. 010; assay: Mouse protection test, i.p. infection with multilethal amounts of Past. haem. 010; type: in vivo, mice; settings: subcutaneous, infected i.p. with multilethal amounts of Past. haem. 010
Experimental: Additionally, compound (I) is tested in vivo by the well-known mouse protection test, or by a microbiological (bioassay) determination of serum levels in a variety of mammals (e.g., mouse, rat, dog). For example, at subcutaneous doses of either 100 mg./kg. or 25 mg./kg., there was survival of 5/5 mice infected i.p. with multilethal amounts of Past. haem. 010.

## CC=CC=CC1OC(O)(C(CC)C(=O)NCC=CC=C(C)C(OC)C(C)C2OC(C=CC=CC=C(C)C(=O)c3c(O)cc[nH]c3=O)C(O)C2O)C(O)C(OC2OC(C)C(OC3OC(C)C(OC)C(O)C3OC)C(OC)C2O)C1(C)C (stereo not shown) [N-Demethylefrotomycin, N-demethylefrotomycin]
[1]; 24 h, strain 124, replicate Day 1
  MIC: > 100 µg/mL
[1]; 48 h, strain 124, replicate Day 2
  MIC: > 100 µg/mL
[2]
  MIC: 12.5 µg/mL (≈ 11 µM)
[3]; 24 h
  MIC: 12.5 µg/mL (≈ 11 µM)
[3]; 48 h
  MIC: 12.5 µg/mL (≈ 11 µM)
[3]; strain 046, replicate Day 2, BHI broth
  MIC: 12.5 µg/mL (≈ 11 µM)
[4]
  MIC: 12.5 µg/mL (≈ 11 µM)
[5]; strain 002, replicate Day 1
  MIC: 12.5 µg/mL (≈ 11 µM)
[5]; strain 008, replicate Day 1
  MIC: 12.5 µg/mL (≈ 11 µM)
[6]; strain 004, replicate Day 1
  MIC: 12.5 µg/mL (≈ 11 µM)
[6]; strain 005, replicate Day 1
  MIC: 12.5 µg/mL (≈ 11 µM)
[7]; 25 mg./kg.
  survival: 5/5
[7]; 100 mg./kg.
  survival: 5/5
